Measurements: US20230094952A1, “Method for Culturing Hematopoietic Stem Cells” (Sumitomo Pharma Co., Ltd., priority 2019, published 2023)

Tested on: mouse long-term hematopoietic stem cells
Assay: Reproducibility and concentration dependence test: 1-week culture of sorted Hoxb5-tri-mCherry mouse long-term hematopoietic stem cells, flow cytometry
Format: cell-based
Details: Table 4, day 7 of culture, n=2
Experimental: Mice with insertion of a nucleic acid sequence containing three copies of a gene encoding the fluorescent protein mCherry to the C terminus of the mouse endogenous HoxB5 gene (Hoxb5-tri-mCherry) were used (triple-mCherry Hoxb5 knock-in mice; Non Patent Literature 1). The mice were housed under environmental conditions such that the room temperature and the humidity were 20 to 26° C. and 40 to 70%, respectively, under light for 12 hours and under dark for 12 hours (illumination: 8:00 a.m. to 8:00 p.m.).
Bone marrow cells were collected from the tibia, femur, humerus, and pelvis in each side of each of the mice, and gathered in a mortar. A buffer obtained by adding thermally deactivated bovine serum (manufactured by Gibco) at a final concentration of 2% and EDTA at a final concentration of 2 mM to Ca^2+-free and Mg^2+-free PBS was added, and the resultant was broken with a pestle to obtain a cell population including hematopoietic stem cells.
First, the thus-obtained cell population including hematopoietic stem cells was passed through strainers (meshes) of 100 μm, 70 μm, and 40 μm. The cell population was stained with an APC-binding anti-c-Kit (2B8) and fractionated with anti-APC magnetic beads and an LS column (both manufactured by Miltenyi Biotec) to obtain a cell population enriched with hematopoietic stem cells and progenitor cells.
Subsequently, cells being c-Kit-positive were stained with antibodies for the following cell surface markers.
Staining with the antibodies was performed at 4° C., and the cells were incubated for 30 minutes. For staining with the CD34 antibody, the cells were incubated for 90 minutes. Dead cell staining was performed with SYTOX Red Dead Cell Stain (manufactured by Life Technologies) in accordance with a method recommended by the manufacturer.
Flow cytometry analysis and cell classification (cell sorting) were performed with a FACS Aria II cell sorter (manufactured by BD Biosciences), wherein Lineage-negative, c-Kit-positive, Sca-1-positive, Flk2-negative, CD34-negative or weakly CD34-positive, CD150-positive, and mCherry-positive fractions were regarded as long-term hematopoietic stem cells, and analysis was performed with the software FlowJo (manufactured by Tree Star, Inc.).
The cells after classification were seeded in a 96-well plate. A cell culture medium was prepared by adding Stem Cell Factor (SCF, manufactured by PeproTech, Inc.) and Thrombopoietin (TPO, manufactured by PeproTech, Inc.) to StemSpan SFEM culture medium (manufactured by […] Technologies Inc.) and added in advance to a cell culture 96-well plate (manufactured by BD Biosciences) at 100 μL/well, and the cells sorted with the FACS Aria II cell sorter (BD Biosciences) were then seeded at 10 cells/well.
[…] Thereafter, the cells were cultured in a CO2 incubator under conditions of 37° C. and 5% CO2 for 1 week.
After culture, the cells were stained with the antibodies for the surface markers c-Kit and Sca-1, Ter-119, B220, CD3, CD4, CD8a, Gr-1, and CD11b, and the ratio and post-growth cell count of a KLS fraction (c-Kit^+, Lin^−, Sca-1^+) or an mCherry-positive fraction given with use of a FACS Aria II cell sorter were analyzed by using FlowJo (BD Biosciences). The mCherry-positive fraction is a cell fraction expressing the Hoxb5 gene, and the KLS fraction is a cell fraction being c-Kit-positive, Lin-negative, and Sca-1-positive, and includes hematopoietic stem cells and multipotent progenitor cells as main components. […]

Structure (SMILES)	KLS-positive rate (compound 0.1 μM) [%]	Viable cell count (compound 0.1 μM) [cell]	mCherry-positive rate (compound 0.1 μM) [%]	KLS-positive rate (compound 0.3 μM) [%]	Viable cell count (compound 0.3 μM) [cell]	mCherry-positive rate (compound 0.3 μM) [%]	KLS-positive rate (compound 1 μM) [%]	Viable cell count (compound 1 μM) [cell]	mCherry-positive rate (compound 1 μM) [%]	KLS-positive rate (compound 3 μM) [%]	Viable cell count (compound 3 μM) [cell]	mCherry-positive rate (compound 3 μM) [%]	KLS-positive rate (compound 10 μM) [%]	Viable cell count (compound 10 μM) [cell]	mCherry-positive rate (compound 10 μM) [%]
C[C@H]1[C@@H](OC2CCCCC2)O[C@@H]2O[C@@]3(C)CC[C@H]4[C@H](C)CC[C@@H]1[C@@]24OO3 [Example 1-20, (3R,5aS,6R,8aS,9R,10S,12R,12aR)-10-(cyclohexyloxy)-3,6,9-trimethyldecahydro-12H-3,12-epoxypyrano[4,3-j][1,2]benzodioxepine]	0.0	0.0	0.0	0.0	0.0	0.0	0.0	1.0	0.0	0.0	0.5	50.0	0.0	0.5	50.0
C[C@H]1[C@@H](OCC(F)(F)F)O[C@@H]2O[C@@]3(C)CC[C@H]4[C@H](C)CC[C@@H]1[C@@]24OO3 [Example 1-22, (3R,5aS,6R,8aS,9R,10S,12R,12aR)-3,6,9-Trimethyl-10-(2,2,2-trifluoroethoxy)decahydro-12H-3,12-epoxypyrano[4,3-j][1,2]benzodioxepine]	26.7	216.0	90.9	87.0	12.5	100.0	0.0	0.5	0.0	50.0	0.5	50.0	0.0	0.5	0.0
C[C@H]1[C@@H](C(N)=O)O[C@@H]2O[C@@]3(C)CC[C@H]4[C@H](C)CC[C@@H]1[C@@]24OO3 [Example 1-15, (3R,5aS,6R,8aS,9R,10S,12R,12aR)-3,6,9-Trimethyldecahydro-12H-3,12-epoxypyrano[4,3-j][1,2]benzodioxepine-10-carboxamide]	6.8	379.0	7.1	13.0	540.0	13.3	17.9	258.0	47.3	40.0	111.0	87.1	54.9	42.5	97.6
CC(=O)OCCOC1O[C@@H]2O[C@@]3(C)CC[C@H]4[C@H](C)CC[C@@H]([C@H]1C)[C@@]24OO3 (stereo in doubt) [Example 1-26, 2-{[(3R,5aS,6R,8aS,9R,10S,12R,12aR)-3,6,9-Trimethyldecahydro-12H-3,12-epoxypyrano[4,3-j][1,2]benzodioxepin-10-yl]oxy}ethyl acetate]	56.1	13.5	80.7	68.5	48.5	95.0	55.4	20.0	96.7	26.9	43.5	100.0	28.9	30.5	100.0
CO[C@@H]1O[C@@H]2O[C@@]3(C)CC[C@H]4[C@H](C)CC[C@@H]([C@H]1C)[C@@]24OO3 [Example 1-35, (3R,5aS,6R,8aS,9R,10R,12R,12aR)-10-Methoxy-3,6,9-trimethyldecahydro-12H-3,12-epoxypyrano[4,3-j][1,2]benzodioxepine]	13.8	763.5	3.0	19.9	544.5	48.5	17.9	554.0	74.0	48.7	104.5	92.2	46.7	121.5	99.6
C[C@H]1[C@@H](F)O[C@@H]2O[C@@]3(C)CC[C@H]4[C@H](C)CC[C@@H]1[C@@]24OO3 [Example 1-1, (3R,5aS,6R,8aS,9R,10R,12S,12aR)-10-Fluoro-3,6,9-trimethyldecahydro-12H-3,12-epoxypyrano[4,3-j][1,2]benzodioxepine]	46.5	477.0	0.5	0.0	0.0	0.0	0.0	0.5	50.0	0.0	0.0	0.0	0.0	0.0	0.0
C[C@H]1[C@H](Oc2ccccc2)O[C@@H]2O[C@@]3(C)CC[C@H]4[C@H](C)CC[C@@H]1[C@@]24OO3 [Example 1-25, (3R,5aS,6R,8aS,9R,10R,12R,12aR)-3,6,9-trimethyl-10-phenoxydecahydro-12H-3,12-epoxypyrano[4,3-j][1,2]benzodioxepine]	40.0	181.5	52.3	0.0	0.5	0.0	0.0	0.0	0.0	50.0	0.5	50.0	0.0	0.0	0.0
CC(=O)OCCO[C@@H]1O[C@@H]2O[C@@]3(C)CC[C@H]4[C@H](C)CC[C@@H]([C@H]1C)[C@@]24OO3 [Example 1-27, 2-{[(3R,5aS,6R,8aS,9R,10R,12R,12aR)-3,6,9-Trimethyldecahydro-12H-3,12-epoxypyrano[4,3-j][1,2]benzodioxepin-10-yl]oxy}ethyl acetate]	45.4	122.0	44.3	75.0	14.5	94.7	100.0	6.0	100.0	90.0	6.0	100.0	49.8	17.5	100.0
CC(=O)N[C@@H]1O[C@@H]2O[C@@]3(C)CC[C@H]4[C@H](C)CC[C@@H]([C@H]1C)[C@@]24OO3 [Example 1-10, N-[(3R,5aS,6R,8aS,9R,10R,12R,12aR)-3,6,9-Trimethyldecahydro-12H-3,12-epoxypyrano[4,3-j][1,2]benzodioxepin-10-yl]acetamide]	19.7	717.5	6.5	23.1	387.0	16.5	32.9	325.5	9.1	33.1	579.0	38.5	53.1	46.5	99.3
